The source made the active and inactive calls. The calls are words filed in the database; no cut-off is given here.

A short description of assay [1]: Inhibition of baker's yeast alpha-glucosidase incubated for 30 mins using p-nitrophenyl-alpha-D-glucopyranoside substrate by spectrophotometry. On the set-up: species or system Saccharomyces cerevisiae.
For assay [2], the system named is HepG2. Description: Induction of glucose consumption in human HepG2 cells at 1 uM incubated for 24 hrs. Format: functional, cell-based.
Assay [3] relates to Saccharomyces cerevisiae. Description: Irreversible inhibition of baker's yeast alpha-glucosidase at […] dialyzed for 24 hrs followed by compound re-treatment for 30 mins using p-nitrophenyl-alpha-D-glucopyranoside substrate.
Assay [4] concerns Saccharomyces cerevisiae. Description: Mixed competitive inhibition of baker's yeast alpha-glucosidase incubated for 30 mins using p-nitrophenyl-alpha-D-glucopyranoside substrate by spectrophotometry based Lineweaver-Burk plot analysis.
The test system of assay [5] is Saccharomyces cerevisiae. Description: Irreversible inhibition of baker's yeast alpha-glucosidase incubated for 30 mins using p-nitrophenyl-alpha-D-glucopyranoside substrate by spectrophotometry based Lineweaver-Burk plot analysis.
Assay [6] has as its system HepG2. Description: Induction of glucose consumption in human HepG2 cells at 1 mM incubated for 24 hrs. Format: functional, cell-based.

What is called IC50 is the concentration that inhibits the measured activity by half. Higher therefore signals a need for much substance. In assay [1], `O=C1/C(=C/c2ccccc2)Oc2cc(O)c(-c3ccc(C(F)(F)F)cc3)cc21` returned an IC50 of 30.9 µM. Besides, the result in assay [2] was Active.

In assay [1], `COc1cc2c(cc1-c1ccccc1)C(=O)/C(=C/c1ccccc1)O2` yielded an IC50 above 100 µM.

In the case of `CCOC(=O)/C=C1\Oc2cc(OC)c(-c3ccc(F)cc3)cc2C1=O`, the 50% inhibitory concentration (IC50) in assay [1] was found to be 26.6 µM.

`CCOC(=O)/C=C1\Oc2cc(O)c(-c3ccc(F)cc3)cc2C1=O` had a half-maximal inhibitory concentration (IC50) in assay [1] of 11.1 µM.

In assay [1], `CCOC(=O)/C=C1\Oc2cc(O)c(-c3ccc(C(F)(F)F)cc3)cc2C1=O` showed an IC50 of 14.3 µM.

For the molecule `COc1cc2c(cc1-c1ccc(F)cc1)C(=O)CO2`, the inhibition entry in assay [3], in assay [4] and in assay [5] was “Active” each time. Half-maximal inhibition in assay [1] (IC50) required 9.88 µM. In assay [2], the outcome was Active.

In turn, `COc1ccc(COc2cc3c(cc2-c2ccccc2)C(=O)CO3)cc1` yielded an IC50 in assay [1] of 10.6 µM. In addition, the outcome in assay [2] was inactive.

The molecule `COc1ccc(/C=C2\Oc3cc(O)ccc3C2=O)cc1OC` returned an IC50 in assay [1] above 100 µM.

Turning to `O=C1c2ccc(O)cc2OC1Cc1ccc(O)c(O)c1` (stereo unspecified), in assay [1], it took 63.4 µM to reach half-maximal inhibition (IC50).

In turn, `COc1ccc(COc2ccc3c(c2)OCC3=O)cc1` showed an IC50 in assay [1] above 100 µM.

As for `O=C1/C(=C/c2ccc(O)c(O)c2)Oc2cc(O)ccc21` [SULFURETIN], in assay [1], the half-maximal inhibitory concentration (IC50) was found to be 67.6 µM. In other words, the double-digit micromolar range.

Turning to `O=C1/C(=C/c2cccc(O)c2)Oc2cc(O)ccc21`, the IC50 in assay [1] was above 100 µM.

Molecule `COc1cc2c(cc1-c1ccc(F)cc1)C(=O)/C(=C/c1ccccc1)O2` yielded an IC50 in assay [1] above 100 µM.

Consider `COc1ccc(COc2cc3c(cc2-c2ccc(C(F)(F)F)cc2)C(=O)CO3)cc1`, for which, in assay [1], the half-inhibitory concentration (IC50) stood at 10.9 µM.

The molecule `O=C1/C(=C/c2ccc(O)cc2O)Oc2cc(O)ccc21` yielded an IC50 in assay [1] of 79.2 µM.

Turning to `COc1ccc(COc2ccc3c(c2)O/C(=C\c2ccccc2)C3=O)cc1`, the IC50 in assay [1] is 19.8 µM. Against the preceding molecule, the IC50 is about 4-fold lower.

As for `O=C1/C(=C/c2ccccc2)Oc2cc(O)ccc21`, the IC50 in assay [1] was above 100 µM.

The molecule `COc1cc2c(cc1-c1ccccc1)C(=O)CO2` came in with an IC50 in assay [1] of 20.1 µM.

In assay [1], `CCOC(=O)/C=C1\Oc2cc(OCc3ccc(OC)cc3)ccc2C1=O` yielded a half-inhibitory concentration (IC50) of 33.4 µM. This IC50 is about 1.7-fold higher than that of the molecule before.

As to `CN(C)C(=N)NC(=N)N`, the result in assay [6] was Active.

As to `COc1ccc(COc2cc3c(cc2-c2ccc(F)cc2)C(=O)CO3)cc1`, in assay [1], the IC50 amounted to 24.9 µM. This lies in the double-digit micromolar range.

Regarding `O=C1/C(=C/c2ccc(O)cc2)Oc2cc(O)ccc21`, the midpoint of inhibition in assay [1], the IC50, lay at 76.7 µM.

For `COc1cc2c(cc1-c1ccc(C(F)(F)F)cc1)C(=O)CO2`, the IC50 in assay [1] worked out at 21.2 µM.

As to `O=C1/C(=C/c2ccccc2O)Oc2cc(O)ccc21`, in assay [1], the IC50 was found to be 93 µM. Against the preceding molecule, the IC50 is about 4.4-fold higher.

In turn, `C[C@H]1O[C@H](O[C@H]2[C@H](O)[C@@H](O)[C@@H](O[C@H]3[C@H](O)[C@@H](O)C(O)O[C@@H]3CO)O[C@@H]2CO)[C@H](O)[C@@H](O)[C@@H]1N[C@H]1C=C(CO)[C@@H](O)[C@H](O)[C@H]1O` (stereo partly specified) [ACARBOSE] showed an IC50 in assay [1] of 50.3 µM.

Source of the values: ChEMBL document CHEMBL4043096, “Synthesis of 6-hydroxyaurone analogues and evaluation of their α-glucosidase inhibitory and glucose consumption-promoting activity: Development of highly active 5,6-disubstituted derivatives” (Bioorg Med Chem Lett, 2017).
